Activity data for two compounds are collected here from ChEMBL document CHEMBL5678818, “Discovery of potent SOS1 inhibitors that block RAS activation via disruption of the RAS-SOS1 interaction” (Proc Natl Acad Sci U S A, 2019).

For experiment [1], the target named is Aurora kinase B (Homo sapiens) (UniProt Q96GD4). In words: Inhibition of AURKB (unknown origin) assessed as residual activity at 1000 nM by KINOMEscan analysis relative to control.
Experiment [2] deals with Cyclin-dependent kinase 8 (Homo sapiens) (UniProt P49336). The experiment is described as follows: Inhibition of CDK8 (unknown origin) assessed as residual activity at 1000 nM by KINOMEscan analysis relative to control.
Sequence of Cyclin-dependent kinase 8 (Homo sapiens) (P49336 whole entry): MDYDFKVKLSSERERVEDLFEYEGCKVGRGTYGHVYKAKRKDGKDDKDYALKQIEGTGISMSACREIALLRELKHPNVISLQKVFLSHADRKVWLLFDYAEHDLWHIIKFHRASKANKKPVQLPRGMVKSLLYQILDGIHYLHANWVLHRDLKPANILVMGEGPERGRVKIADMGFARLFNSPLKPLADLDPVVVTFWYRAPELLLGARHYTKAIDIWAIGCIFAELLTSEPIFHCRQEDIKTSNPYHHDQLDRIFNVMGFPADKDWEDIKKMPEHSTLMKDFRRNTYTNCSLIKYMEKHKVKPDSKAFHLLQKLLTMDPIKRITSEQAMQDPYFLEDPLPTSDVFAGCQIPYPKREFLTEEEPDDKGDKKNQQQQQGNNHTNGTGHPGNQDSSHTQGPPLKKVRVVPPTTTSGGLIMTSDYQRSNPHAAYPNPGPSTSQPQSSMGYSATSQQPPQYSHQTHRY
For experiment [3], the target named is T1, Cyclin-dependent kinase-like 5 (Homo sapiens) (UniProt O76039).
T1 sequence (whole entry): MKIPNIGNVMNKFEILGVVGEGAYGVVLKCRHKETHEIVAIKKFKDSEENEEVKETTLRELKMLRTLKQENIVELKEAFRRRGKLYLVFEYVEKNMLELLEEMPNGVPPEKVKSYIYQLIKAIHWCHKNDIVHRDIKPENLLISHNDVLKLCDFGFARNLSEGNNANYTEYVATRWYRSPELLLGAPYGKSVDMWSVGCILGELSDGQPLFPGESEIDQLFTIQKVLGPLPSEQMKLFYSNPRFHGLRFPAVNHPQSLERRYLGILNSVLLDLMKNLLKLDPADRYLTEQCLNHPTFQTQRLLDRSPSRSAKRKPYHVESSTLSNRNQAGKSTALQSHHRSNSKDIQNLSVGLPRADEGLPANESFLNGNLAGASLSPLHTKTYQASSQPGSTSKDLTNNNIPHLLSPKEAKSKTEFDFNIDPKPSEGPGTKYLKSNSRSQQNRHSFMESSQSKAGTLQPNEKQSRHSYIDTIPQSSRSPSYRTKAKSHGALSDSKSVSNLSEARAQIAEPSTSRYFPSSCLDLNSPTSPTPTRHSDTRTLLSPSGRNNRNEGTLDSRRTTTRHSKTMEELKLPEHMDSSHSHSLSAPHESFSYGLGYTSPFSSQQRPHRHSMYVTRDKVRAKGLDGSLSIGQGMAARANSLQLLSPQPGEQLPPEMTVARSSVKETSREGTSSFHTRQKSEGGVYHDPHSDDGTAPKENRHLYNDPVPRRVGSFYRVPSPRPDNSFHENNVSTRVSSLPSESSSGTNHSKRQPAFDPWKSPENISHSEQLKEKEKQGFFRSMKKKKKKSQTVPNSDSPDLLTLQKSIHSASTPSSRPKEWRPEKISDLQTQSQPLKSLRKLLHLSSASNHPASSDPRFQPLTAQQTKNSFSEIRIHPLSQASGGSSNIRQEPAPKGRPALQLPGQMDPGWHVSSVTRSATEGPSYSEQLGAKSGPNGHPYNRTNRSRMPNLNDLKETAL
The experiment is described as follows: Inhibition of CDKL5 (unknown origin) assessed as residual activity at 1000 nM by KINOMEscan analysis relative to control.

Experiment [4] concerns the target Receptor tyrosine-protein kinase erbB-4 (Homo sapiens) (UniProt Q15303). The experiment is described as follows: Inhibition of ERBB4 (unknown origin) assessed as residual activity at 1000 nM by KINOMEscan analysis relative to control.
Experiment [5] addresses Mitogen-activated protein kinase kinase kinase 4 (Homo sapiens) (UniProt Q9Y6R4). The experiment is described as follows: Inhibition of MAP3K4 (unknown origin) assessed as residual activity at 1000 nM by KINOMEscan analysis relative to control.
For experiment [6], the target named is T2, MAP/microtubule affinity-regulating kinase 4 (Homo sapiens) (UniProt Q96L34).
T2 sequence (whole entry): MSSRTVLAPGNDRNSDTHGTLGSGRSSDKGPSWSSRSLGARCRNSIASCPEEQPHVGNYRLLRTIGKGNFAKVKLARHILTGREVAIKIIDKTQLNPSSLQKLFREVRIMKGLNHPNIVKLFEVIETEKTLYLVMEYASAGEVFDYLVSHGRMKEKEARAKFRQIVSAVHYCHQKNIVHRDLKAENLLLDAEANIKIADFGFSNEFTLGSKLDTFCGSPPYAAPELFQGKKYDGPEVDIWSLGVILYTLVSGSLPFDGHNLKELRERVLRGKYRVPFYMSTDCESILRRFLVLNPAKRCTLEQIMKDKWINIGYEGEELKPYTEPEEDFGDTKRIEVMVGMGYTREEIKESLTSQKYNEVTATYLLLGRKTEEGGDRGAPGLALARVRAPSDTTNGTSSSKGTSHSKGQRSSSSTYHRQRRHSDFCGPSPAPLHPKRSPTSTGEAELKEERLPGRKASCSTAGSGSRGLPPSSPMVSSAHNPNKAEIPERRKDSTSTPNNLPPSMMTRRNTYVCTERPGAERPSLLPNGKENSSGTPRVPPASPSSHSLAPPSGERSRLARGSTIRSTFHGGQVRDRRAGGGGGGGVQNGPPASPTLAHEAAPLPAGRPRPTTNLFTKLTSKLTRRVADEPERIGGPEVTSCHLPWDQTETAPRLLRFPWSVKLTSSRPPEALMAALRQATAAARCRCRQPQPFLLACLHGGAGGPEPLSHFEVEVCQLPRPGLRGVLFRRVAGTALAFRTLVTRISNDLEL
In words: Inhibition of MARK4 (unknown origin) assessed as residual activity at 1000 nM by KINOMEscan analysis relative to control.

In experiment [7] the target is cAMP-dependent protein kinase catalytic subunit alpha (Homo sapiens) (UniProt P17612). The experiment is described as follows: Inhibition of PKAC-alpha (unknown origin) assessed as residual activity at 1000 nM by KINOMEscan analysis relative to control.

Sequence of Receptor tyrosine-protein kinase erbB-4 (Homo sapiens) (Q15303 whole entry): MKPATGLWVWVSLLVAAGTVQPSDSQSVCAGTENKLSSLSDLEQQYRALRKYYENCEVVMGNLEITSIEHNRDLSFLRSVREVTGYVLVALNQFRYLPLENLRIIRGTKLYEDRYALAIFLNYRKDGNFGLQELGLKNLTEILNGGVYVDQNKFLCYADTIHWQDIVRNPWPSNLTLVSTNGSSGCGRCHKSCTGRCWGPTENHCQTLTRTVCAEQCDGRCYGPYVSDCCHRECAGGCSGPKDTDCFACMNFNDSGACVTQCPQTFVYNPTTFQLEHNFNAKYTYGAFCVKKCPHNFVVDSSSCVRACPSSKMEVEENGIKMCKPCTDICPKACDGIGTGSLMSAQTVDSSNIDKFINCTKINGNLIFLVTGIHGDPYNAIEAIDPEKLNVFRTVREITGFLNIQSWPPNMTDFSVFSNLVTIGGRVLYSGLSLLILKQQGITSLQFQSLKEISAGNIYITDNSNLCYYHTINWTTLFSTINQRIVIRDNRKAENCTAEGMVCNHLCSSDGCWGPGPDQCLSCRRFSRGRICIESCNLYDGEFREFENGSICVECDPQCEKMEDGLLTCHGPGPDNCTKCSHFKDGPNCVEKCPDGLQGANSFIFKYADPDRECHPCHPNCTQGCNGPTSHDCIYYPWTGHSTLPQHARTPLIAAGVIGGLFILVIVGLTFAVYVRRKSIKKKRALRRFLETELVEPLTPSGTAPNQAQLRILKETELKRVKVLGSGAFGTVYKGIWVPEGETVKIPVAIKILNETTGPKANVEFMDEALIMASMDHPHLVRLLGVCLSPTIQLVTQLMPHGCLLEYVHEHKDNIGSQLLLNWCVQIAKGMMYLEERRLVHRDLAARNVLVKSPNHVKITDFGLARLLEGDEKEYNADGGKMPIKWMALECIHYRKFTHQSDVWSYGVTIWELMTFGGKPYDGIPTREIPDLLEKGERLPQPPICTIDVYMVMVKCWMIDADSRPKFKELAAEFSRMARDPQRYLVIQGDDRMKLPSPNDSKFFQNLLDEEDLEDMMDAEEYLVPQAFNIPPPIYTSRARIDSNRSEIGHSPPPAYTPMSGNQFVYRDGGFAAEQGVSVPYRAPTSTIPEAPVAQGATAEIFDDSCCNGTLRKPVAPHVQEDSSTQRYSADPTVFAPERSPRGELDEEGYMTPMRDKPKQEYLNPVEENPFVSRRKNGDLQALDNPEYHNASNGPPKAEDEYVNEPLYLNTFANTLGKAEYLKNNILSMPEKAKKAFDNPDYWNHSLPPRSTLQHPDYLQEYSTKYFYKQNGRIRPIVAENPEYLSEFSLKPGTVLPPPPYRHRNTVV
Sequence of Mitogen-activated protein kinase kinase kinase 4 (Homo sapiens) (Q9Y6R4 whole entry): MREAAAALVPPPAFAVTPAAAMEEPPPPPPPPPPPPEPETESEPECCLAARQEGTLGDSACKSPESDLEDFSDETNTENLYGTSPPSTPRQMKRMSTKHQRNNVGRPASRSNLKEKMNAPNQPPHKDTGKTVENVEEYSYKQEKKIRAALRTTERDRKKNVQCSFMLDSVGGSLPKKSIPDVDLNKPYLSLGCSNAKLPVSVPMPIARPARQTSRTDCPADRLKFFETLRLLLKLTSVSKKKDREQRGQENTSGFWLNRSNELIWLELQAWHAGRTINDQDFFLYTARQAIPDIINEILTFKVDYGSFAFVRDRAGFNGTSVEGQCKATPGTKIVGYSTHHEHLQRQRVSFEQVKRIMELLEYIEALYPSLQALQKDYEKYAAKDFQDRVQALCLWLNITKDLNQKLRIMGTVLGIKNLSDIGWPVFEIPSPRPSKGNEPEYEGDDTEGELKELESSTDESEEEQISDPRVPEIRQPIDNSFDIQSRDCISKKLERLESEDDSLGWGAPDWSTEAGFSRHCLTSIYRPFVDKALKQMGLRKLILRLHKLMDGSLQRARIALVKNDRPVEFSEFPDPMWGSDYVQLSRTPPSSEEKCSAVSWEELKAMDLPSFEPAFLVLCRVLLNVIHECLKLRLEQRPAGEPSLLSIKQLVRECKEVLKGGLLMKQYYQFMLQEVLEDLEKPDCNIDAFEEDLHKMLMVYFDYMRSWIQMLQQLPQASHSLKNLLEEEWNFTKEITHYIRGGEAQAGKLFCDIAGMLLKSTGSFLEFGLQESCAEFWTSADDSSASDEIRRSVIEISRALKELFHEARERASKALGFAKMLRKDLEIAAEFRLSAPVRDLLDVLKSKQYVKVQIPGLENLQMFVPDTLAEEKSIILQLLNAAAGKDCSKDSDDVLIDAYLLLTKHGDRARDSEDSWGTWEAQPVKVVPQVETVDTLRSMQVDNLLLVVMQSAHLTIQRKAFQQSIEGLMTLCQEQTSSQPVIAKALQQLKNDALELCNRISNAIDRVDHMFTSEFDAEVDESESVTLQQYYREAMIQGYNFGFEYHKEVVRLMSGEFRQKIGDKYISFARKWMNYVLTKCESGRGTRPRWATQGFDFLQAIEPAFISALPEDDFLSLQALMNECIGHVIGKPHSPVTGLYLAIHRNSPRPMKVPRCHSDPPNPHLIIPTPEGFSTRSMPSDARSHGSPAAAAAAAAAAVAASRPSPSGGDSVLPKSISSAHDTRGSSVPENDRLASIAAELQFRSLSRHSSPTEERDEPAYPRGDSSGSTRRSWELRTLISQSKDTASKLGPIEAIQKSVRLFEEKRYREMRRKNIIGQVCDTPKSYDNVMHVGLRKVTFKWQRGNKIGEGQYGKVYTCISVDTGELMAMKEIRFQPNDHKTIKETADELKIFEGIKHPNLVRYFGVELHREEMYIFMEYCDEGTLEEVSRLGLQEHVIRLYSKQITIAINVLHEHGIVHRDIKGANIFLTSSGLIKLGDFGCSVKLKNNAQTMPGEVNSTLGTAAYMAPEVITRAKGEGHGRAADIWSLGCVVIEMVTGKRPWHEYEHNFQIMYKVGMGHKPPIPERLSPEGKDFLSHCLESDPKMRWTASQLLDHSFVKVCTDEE
Sequence of Aurora kinase B (Homo sapiens) (Q96GD4 whole entry): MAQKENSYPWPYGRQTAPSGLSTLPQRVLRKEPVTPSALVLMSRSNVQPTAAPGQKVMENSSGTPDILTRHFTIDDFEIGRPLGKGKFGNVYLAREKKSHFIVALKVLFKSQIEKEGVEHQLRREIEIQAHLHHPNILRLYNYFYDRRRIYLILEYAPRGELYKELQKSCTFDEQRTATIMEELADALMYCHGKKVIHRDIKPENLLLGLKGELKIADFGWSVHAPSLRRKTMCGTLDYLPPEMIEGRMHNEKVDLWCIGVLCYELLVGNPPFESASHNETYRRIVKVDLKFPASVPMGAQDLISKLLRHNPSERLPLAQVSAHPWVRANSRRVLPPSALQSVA

For `COc1cc2nc(C)nc(N[C@H](C)c3cccc(-c4cn[nH]c4)c3)c2cc1OC`, the Activity in experiment [1] was found to be 79%; in experiment [2], 91%; in experiment [3], 82%; in experiment [4], 89%; in experiment [5] it was 50%; in experiment [6], 88%. The Activity in experiment [7] is 97%.

Consider `COc1cc2ncnc(N[C@H](C)c3cccc4ccccc34)c2cc1OC`, for which the Activity in experiment [1] was determined as 98%; in experiment [2], 93%; in experiment [3] it was 94%; in experiment [4] it was 46%; in experiment [5], 96%; in experiment [6], 66%. Further, in experiment [7], the Activity came to 95%.
